The values that follow come from US10172868B2, “Substituted quinazolines for inhibiting kinase activity” (NeuPharma, Inc., priority 2013, dated 2019).

What is called IC50 is the midpoint of a concentration-inhibition curve. A word on the inhibition: it is the share of the control response that was lost under treatment.

One test has as its target BTK (Homo sapiens (Human), UniProt Q06187). The experiment in a line: Z'-LYTE kinase inhibition assay, BTK. The test is classed as biochemical. Particulars: for IC50: read-out: IC50 against BTK; for inhibition at 0.041 µM: compound at 0.041 μM, read-out: % inhibition against BTK. The gist of the method: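 Z'-LYTE FRET assay with Tyr 01 peptide in 50 mM HEPES pH 7.5, 10 mM MgCl2, 1 mM EGTA, 0.01% BRIJ-35. Compounds in 1% DMSO were tested as 10-point, 3-fold titrations.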

The target of another test is JAK3 (Homo sapiens (Human), UniProt P52333). The experiment in a line: Z'-LYTE kinase inhibition assay, JAK3. The test is classed as biochemical. Particulars: read-out: IC50 against JAK3. As for the experimental part:
Inhibitory activities of compounds against BTK, EGFR and EGFR mutants (EGFR L858R, EGFR T790M, EGFR L858R/T790M), FGFR1, FGFR2, JAK2, JAK3 and KDR were measured by Invitrogen using Z'-LYTE® Method as briefly described in the following.
Test Compounds are screened in 1% DMSO (final) in the well. For 10 point titrations, 3-fold serial dilutions are conducted from the starting concentration. All ATP Solutions are diluted to a 4× working concentration in Kinase Buffer (50 mM HEPES pH 7.5, 0.01% BRIJ-35, 10 mM MgCl2, 1 mM EGTA). Peptide/Kinase Mixtures are diluted to a 2× working concentration in the appropriate Kinase Buffers as described below.
(v) Peptide/Kinase Mixtures for Measurement of JAK3:
The 2×JAK3/Tyr 06 mixture is prepared in 50 mM HEPES pH 7.5, 0.01% BRIJ-35, 10 mM MgCl2, 1 mM EGTA. The final 10 μL Kinase Reaction consists of 0.29-1.34 ng JAK3 and 2 μM Tyr 06 in 50 mM HEPES pH 7.5, 0.010/% BRIJ-35, 10 mM MgCl2, 1 mM EGTA. After the 1 hour Kinase Reaction incubation, 5 μL of a 1:64 dilution of Development Reagent A is added.
Reaction starts by 30-second shaking of mixture consisting of 2.5 μL 4× test compound, […] 2× kinase reaction mixture and 2.5 μL 4×ATP Solution on Bar-coded Corning, low volume NBS, black 384-well plate (Corning Cat. #3676). Then the mixture is incubated for 60-minute at room temperature for the kinase reaction, followed by addition of 5 μL of a 1:1024 dilution of development reagent A and 30-second plate shake. The mixture is then incubated for another 60-minute at room temperature for development reaction. Finally fluorescence is read by plate reader.
To determine IC50 of a compound against EGFR, EGFR mutant and other kinases, a series of concentrations of the compound were tested for the inhibition. […] The scale utilized in Table 4 is as follows: +++ less than 100 nM, ++ 100-500 nM and + greater than 500 nM.

Another test has as its system H1975 tumor xenografts. The experiment in a line: Inhibition of tumor growth in H1975 xenograft model. The test is classed as in vivo, BALB/c female nude mice. To be noted: QD x 14; for Tumor Volume Pre-treatment: baseline before treatment. The procedure:
H1975 cells were implanted in BALB/c female nude mice and grown as tumor xenografts. When tumors achieved 120-200 mm^3, mice were assigned into treatment and control groups using randomized block design based upon their tumor volumes. Each group contained 6 tumor-bearing mice. Tumors were measured twice weekly in two dimensions using a caliper, and the tumor volume was calculated from two-dimensional measurements using the equation V=0.5×a×b^2 where a and b are the long and short diameters of the tumor, respectively. Relative tumor volume (RTV) was defined as TVt/TVi, the ratio of the volume on a given day (TVt) and the volume at the start of treatment (TVi). Relative tumor growth rate (T/C) was defined as RTVT/RTVC, the ratio of relative tumor volume of treatment group (RTVT) and relative tumor volume of control group (RTVC) on a given day.

For the next test, the system named is A431 cells. The experiment in a line: cells. Particulars: Homo sapiens, A-431, 72 h, read-out: IC50 in A431 cells.
A further test addresses EGFR (ErbB1) L858R (Homo sapiens (Human), UniProt P00533, L858R). The experiment in a line: Z'-LYTE kinase inhibition assay, EGFR L858R. Particulars: read-out: % inhibition against EGFR L858R (Compound at 1 μM). The test is classed as biochemical. The procedure: Inhibitory activities of compounds against BTK, EGFR and EGFR mutants (EGFR L858R, EGFR T790M, EGFR L858R/T790M), FGFR1, FGFR2, JAK2, JAK3 and KDR were measured by Invitrogen using Z'-LYTE® Method as briefly described in the following. Test Compounds are screened in 1% DMSO (final) in the well. For 10 point titrations, 3-fold serial dilutions are conducted from the starting concentration. All ATP Solutions are diluted to a 4× working concentration in Kinase Buffer (50 mM HEPES pH 7.5, 0.01% BRIJ-35, 10 mM MgCl2, 1 mM EGTA). Peptide/Kinase Mixtures are diluted to a 2× working concentration in the appropriate Kinase Buffers as described below. (ii) Peptide/Kinase Mixtures for Measurement of EGFR (ErbB1) L858R: The 2×EGFR (ErbB1) L858R/[…] mixture is prepared in 50 mM HEPES pH 7.5, 0.01% BRIJ-35, 10 mM MgCl2, 4 mM MnCl2, 1 mM EGTA, 2 mM DTT. The final 10 μL Kinase Reaction consists of 0.2-1.68 ng EGFR (ErbB1) L858R and 2 μM […] in 50 mM HEPES pH 7.5. 0.01% BRIJ-35, 10 mM MgCl2. 2 mM MnCl2, 1 mM EGTA, 1 mM DTT. After the 1 hour Kinase Reaction incubation, 5 μL of a 1:64 dilution of Development Reagent B is added. Reaction starts by 30-second shaking of mixture consisting of 2.5 μL 4× test compound, […] 2× kinase reaction mixture and 2.5 μL 4×ATP Solution on Bar-coded Corning, low volume NBS, black 384-well plate (Corning Cat. #3676). Then the mixture is incubated for 60-minute at room temperature for the kinase reaction, followed by addition of 5 μL of a 1:1024 dilution of development reagent A and 30-second plate shake. The mixture is then incubated for another 60-minute at room temperature for development reaction. Finally fluorescence is read by plate reader.

Setting [1] is: 30 mg/kg, Intraperitoneal injection.

Molecules are shown by their SMILES.

Chain of JAK3 (P52333 whole entry): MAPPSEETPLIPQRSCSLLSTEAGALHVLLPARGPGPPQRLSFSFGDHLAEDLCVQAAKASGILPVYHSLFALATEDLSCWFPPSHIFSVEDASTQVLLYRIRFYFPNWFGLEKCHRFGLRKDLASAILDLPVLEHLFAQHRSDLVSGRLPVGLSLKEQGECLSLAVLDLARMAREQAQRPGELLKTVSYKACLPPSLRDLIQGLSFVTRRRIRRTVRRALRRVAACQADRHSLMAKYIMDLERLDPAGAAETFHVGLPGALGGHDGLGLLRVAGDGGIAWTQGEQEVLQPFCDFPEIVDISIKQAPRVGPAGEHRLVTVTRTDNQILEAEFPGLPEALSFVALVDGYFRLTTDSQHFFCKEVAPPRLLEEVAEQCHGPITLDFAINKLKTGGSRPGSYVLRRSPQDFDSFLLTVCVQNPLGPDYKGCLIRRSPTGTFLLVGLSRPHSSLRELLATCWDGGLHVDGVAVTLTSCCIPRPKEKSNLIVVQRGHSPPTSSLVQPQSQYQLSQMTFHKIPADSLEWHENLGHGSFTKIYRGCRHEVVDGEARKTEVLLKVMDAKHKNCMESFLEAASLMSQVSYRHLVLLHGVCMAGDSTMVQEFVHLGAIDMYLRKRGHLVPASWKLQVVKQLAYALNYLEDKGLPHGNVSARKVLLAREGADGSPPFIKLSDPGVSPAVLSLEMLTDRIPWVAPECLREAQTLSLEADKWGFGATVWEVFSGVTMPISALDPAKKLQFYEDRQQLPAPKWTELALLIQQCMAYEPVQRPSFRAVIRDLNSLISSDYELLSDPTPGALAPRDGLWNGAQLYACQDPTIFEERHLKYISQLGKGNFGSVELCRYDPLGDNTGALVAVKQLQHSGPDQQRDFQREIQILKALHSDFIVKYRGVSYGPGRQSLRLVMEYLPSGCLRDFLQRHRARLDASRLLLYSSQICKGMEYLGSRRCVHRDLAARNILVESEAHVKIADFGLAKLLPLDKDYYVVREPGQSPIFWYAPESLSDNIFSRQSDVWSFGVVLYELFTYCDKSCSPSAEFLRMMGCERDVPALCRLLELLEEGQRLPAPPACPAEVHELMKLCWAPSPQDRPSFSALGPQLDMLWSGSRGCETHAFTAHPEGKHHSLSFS
Chain of BTK (Q06187 whole entry): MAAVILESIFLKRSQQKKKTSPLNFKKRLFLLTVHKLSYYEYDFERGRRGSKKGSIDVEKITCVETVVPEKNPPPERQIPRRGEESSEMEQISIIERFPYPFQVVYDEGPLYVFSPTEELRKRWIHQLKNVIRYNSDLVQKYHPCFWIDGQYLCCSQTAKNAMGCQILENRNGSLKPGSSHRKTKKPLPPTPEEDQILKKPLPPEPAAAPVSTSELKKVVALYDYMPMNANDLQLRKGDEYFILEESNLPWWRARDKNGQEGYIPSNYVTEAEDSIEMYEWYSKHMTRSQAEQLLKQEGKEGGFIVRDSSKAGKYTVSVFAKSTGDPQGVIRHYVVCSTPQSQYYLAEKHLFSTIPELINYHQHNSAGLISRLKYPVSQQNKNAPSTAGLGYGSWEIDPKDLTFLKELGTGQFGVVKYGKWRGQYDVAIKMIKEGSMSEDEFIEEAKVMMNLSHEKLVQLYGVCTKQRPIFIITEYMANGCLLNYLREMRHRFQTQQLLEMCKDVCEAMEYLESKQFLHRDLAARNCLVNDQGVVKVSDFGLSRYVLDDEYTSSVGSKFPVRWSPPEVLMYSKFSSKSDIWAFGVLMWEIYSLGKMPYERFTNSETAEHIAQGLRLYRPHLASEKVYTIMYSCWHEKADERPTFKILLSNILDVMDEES
Chain of EGFR (ErbB1) L858R (P00533 25-1210 L858R): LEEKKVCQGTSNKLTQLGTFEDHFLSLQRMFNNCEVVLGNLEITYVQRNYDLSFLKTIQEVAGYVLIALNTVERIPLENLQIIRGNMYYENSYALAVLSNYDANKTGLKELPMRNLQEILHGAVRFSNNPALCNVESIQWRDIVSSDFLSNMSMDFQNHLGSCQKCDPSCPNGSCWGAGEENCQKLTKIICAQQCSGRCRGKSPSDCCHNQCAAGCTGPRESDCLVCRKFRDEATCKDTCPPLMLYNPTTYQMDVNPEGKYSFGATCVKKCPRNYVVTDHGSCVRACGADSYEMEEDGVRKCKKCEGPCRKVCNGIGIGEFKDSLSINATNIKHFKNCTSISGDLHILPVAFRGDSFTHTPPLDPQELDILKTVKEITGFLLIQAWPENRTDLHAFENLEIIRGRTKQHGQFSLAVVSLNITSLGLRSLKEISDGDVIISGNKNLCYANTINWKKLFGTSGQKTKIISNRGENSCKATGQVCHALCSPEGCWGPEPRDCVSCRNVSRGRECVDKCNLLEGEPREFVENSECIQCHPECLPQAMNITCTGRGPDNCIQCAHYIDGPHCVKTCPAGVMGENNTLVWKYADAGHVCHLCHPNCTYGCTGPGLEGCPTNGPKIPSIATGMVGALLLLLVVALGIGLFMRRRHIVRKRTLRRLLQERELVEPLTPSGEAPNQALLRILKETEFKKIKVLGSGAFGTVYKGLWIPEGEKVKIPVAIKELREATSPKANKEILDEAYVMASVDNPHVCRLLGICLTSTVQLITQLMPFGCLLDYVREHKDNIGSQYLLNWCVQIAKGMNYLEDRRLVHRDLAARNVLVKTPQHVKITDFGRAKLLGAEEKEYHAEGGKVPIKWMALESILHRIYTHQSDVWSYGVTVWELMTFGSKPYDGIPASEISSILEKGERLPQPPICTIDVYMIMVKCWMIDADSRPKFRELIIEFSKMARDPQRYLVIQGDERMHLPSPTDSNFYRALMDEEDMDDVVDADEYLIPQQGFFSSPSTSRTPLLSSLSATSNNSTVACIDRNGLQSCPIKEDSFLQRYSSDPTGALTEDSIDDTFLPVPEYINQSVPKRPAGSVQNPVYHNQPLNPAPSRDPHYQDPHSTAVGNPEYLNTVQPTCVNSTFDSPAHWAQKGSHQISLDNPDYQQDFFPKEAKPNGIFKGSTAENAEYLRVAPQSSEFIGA
Procedure for A431 cells: Taxol (as a positive control. Sigma) and compounds were dissolved in DMSO (Sigma), and the final concentration of DMSO in the medium was 1%. Tumor cells were plated in 96-well plates at densities of about 4000 cells/well of a 96-well plate and allowed to adhere/grow for 24 h. They were then treated with various concentrations of drug for 72 h, 3-(4,5-Dimethylthiazol-2-yl)-2,5-diphenyltetrazolium bromide (MTT, Sigma) was used to determine the number of viable cells at the time of compound addition and the number of cells remaining after 72 h compound exposure. The number of cells remaining after 72 h was compared to the number of viable cells at the time of compound addition by measuring the absorbance at 570 nm, allowing for the calculation of growth inhibition.
All concentrations of compounds were tested in triplicate and controls were averaged over 4 wells. IC50 was calculated by plotting the concentration of compound vs the percentage of inhibition in treated wells using GraphPad Prism 5.
The scale utilized in Tables 5 is as follows: +++ less than 100 nM; ++ between 100 nM and 500 nM; and + greater than 500 nM.

As to `C=CC(=O)Nc1cccc(-c2cccc3cnc(Nc4ccc(N5CCN(CCO)CC5)cc4)nc23)c1` [Example C059, N-(3-(2-((4-(4-(2-hydroxyethyl)piperazin-1-yl)phenyl)amino)quinazolin-8-yl)phenyl)acrylamide], the IC50 is below 100 nM at BTK, below 100 nM on JAK3 and 100 to 500 nM in the test on A431 cells. The “T/C (relative tumor growth rate)” value in the test on H1975 tumor xenografts (60 mg/kg, Oral) amounted to 35.3%. Besides, the “Tumor Volume Post-treatment” value in the test with H1975 tumor xenografts (60 mg/kg, Oral) amounted to 746.4 mm^3. Besides, the “Tumor Volume Pre-treatment” value in the test on H1975 tumor xenografts (60 mg/kg, Oral) worked out at 151.6 mm^3.
On to `Fc1cccc(-c2cccc3cnc(Nc4ccc(N5CCOCC5)cc4)nc23)c1` [Example C009, 8-(3-fluorophenyl)-N-(4-morpholinophenyl)quinazolin-2-amine], for which the inhibition at 1 µM on EGFR (ErbB1) L858R is below 50%. Further, on BTK, the inhibition at 0.041 µM is below 50%.
Take `C=CC(=O)Nc1cccc(-c2cccc3cnc(Nc4ccc(N5CCOCC5)cc4)nc23)c1` [Example C001, N-(3-(2-((4-morpholinophenyl)amino)quinazolin-8-yl)phenyl)acrylamide]: the inhibition at 1 µM at EGFR (ErbB1) L858R was above 50%. Besides, the inhibition at 0.041 µM at BTK was above 50%. The IC50 in the test on A431 cells was above 500 nM.
For `C=CC(=O)Nc1cccc(-c2cccc3cnc(Nc4ccc(N5CCN(C)CC5)nc4)nc23)c1` [Example C041, N-(3-(2-((6-(4-methylpiperazin-1-yl)pyridin-3-yl)amino)quinazolin-8-yl)phenyl)acrylamide], the IC50 is below 100 nM at BTK, below 100 nM at JAK3 and above 500 nM in the test with A431 cells. Also, in the test on H1975 tumor xenografts (setting [1]), the “T/C (relative tumor growth rate)” value worked out at 48.7%. Moreover, in the test with H1975 tumor xenografts (setting [1]), the “Tumor Volume Post-treatment” value is on record as 1021.2 mm^3. The “Tumor Volume Pre-treatment” value in the test with H1975 tumor xenografts (setting [1]) was 151.7 mm^3.
As for `Clc1ccccc1-c1cccc2cnc(Nc3ccc(N4CCOCC4)cc3)nc12` [Example C011, 8-(2-chlorophenyl)-N-(4-morpholinophenyl)quinazolin-2-amine], the inhibition at 1 µM on EGFR (ErbB1) L858R was below 50%. For the same molecule, the IC50 in the test on A431 cells is above 500 nM.
As to `C=CC(=O)Nc1cccc(-c2cccc3cnc(Nc4ccc(N5CCN(C)CC5)cc4)nc23)c1` [Example C021, N-(3-(2-((4-(4-methylpiperazin-1-yl)phenyl)amino)quinazolin-8-yl)phenyl)acrylamide], on BTK, the inhibition at 0.041 µM is above 50% and the IC50 was below 100 nM. Further, the IC50 at JAK3 was below 100 nM. For the same molecule, in the test with H1975 tumor xenografts (60 mg/kg, Oral), the “T/C (relative tumor growth rate)” value came out at 30.5%, the “Tumor Volume Post-treatment” value stood at 633.5 mm^3 and the “Tumor Volume Pre-treatment” value is 152.5 mm^3. Besides, the IC50 in the test with A431 cells was in the range of 100 to 500 nM.
With `c1ccc(-c2cccc3cnc(Nc4ccc(N5CCOCC5)cc4)nc23)cc1` [Example C004, N-(4-morpholinophenyl)-8-phenylquinazolin-2-amine], on EGFR (ErbB1) L858R, the inhibition at 1 µM is below 50%. At BTK, the inhibition at 0.041 µM is below 50%.
Regarding `C=CC(=O)Nc1cccc(-c2nccc3c(N)nc(Nc4ccc(N5CCOCC5)cc4)nc23)c1` [Example C005, N-(3-(4-amino-2-((4-morpholinophenyl)amino)pyrido[3,4-d]pyrimidin-8-yl)phenyl)acrylamide], the inhibition at 1 µM on EGFR (ErbB1) L858R is above 50%. Further, the inhibition at 0.041 µM at BTK was above 50%.
Consider `C=CC(=O)Nc1cccc(-c2cccc3cnc(Nc4ccc(N5CCN(C)CC5)cc4OC)nc23)c1` [Example C003, N-(3-(2-((2-methoxy-4-(4-methylpiperazin-1-yl)phenyl)amino)quinazolin-8-yl)phenyl)acrylamide], for which the inhibition at 1 µM on EGFR (ErbB1) L858R was above 50%. Further, in the test with A431 cells, the IC50 is above 500 nM.
With `Fc1ccccc1-c1cccc2cnc(Nc3ccc(N4CCOCC4)cc3)nc12` [Example C010, 8-(2-fluorophenyl)-N-(4-morpholinophenyl)quinazolin-2-amine], on EGFR (ErbB1) L858R, the inhibition at 1 µM is below 50%.
`Clc1cccc(-c2cccc3cnc(Nc4ccc(N5CCOCC5)cc4)nc23)c1` [Example C008, 8-(3-chlorophenyl)-N-(4-morpholinophenyl)quinazolin-2-amine]: the inhibition at 1 µM at EGFR (ErbB1) L858R was below 50%. The inhibition at 0.041 µM at BTK was below 50%.
Regarding `C=CC(=O)Nc1cccc(-c2nccc3cnc(Nc4ccc(N5CCOCC5)cc4)nc23)c1` [Example C012, N-(3-(2-((4-morpholinophenyl)amino)pyrido[3,4-d]pyrimidin-8-yl)phenyl)acrylamide], the inhibition at 1 µM at EGFR (ErbB1) L858R was below 50%. The inhibition at 0.041 µM at BTK was above 50%. Moreover, in the test with A431 cells, the IC50 was above 500 nM.
With `C=CC(=O)Nc1cccc(-c2cccc3cnc(Nc4ccc(N5CCN(CCF)CC5)cc4)nc23)c1` [Example C053, N-(3-(2-((4-(4-(2-fluoroethyl)piperazin-1-yl)phenyl)amino)quinazolin-8-yl)phenyl)acrylamide], the inhibition at 0.041 µM on BTK is above 50%. The IC50 in the test on A431 cells lay in the range of 100 to 500 nM.
Regarding `C=CC(=O)Nc1cccc(-c2cccc3cnc(Nc4ccc(N5CCOCC5)cc4OC)nc23)c1` [Example C002, N-(3-(2-((2-methoxy-4-morpholinophenyl)amino)quinazolin-8-yl)phenyl)acrylamide], the inhibition at 1 µM on EGFR (ErbB1) L858R is below 50%. Moreover, the IC50 in the test on A431 cells is above 500 nM.
Take `Fc1ccc(Cl)cc1-c1cccc2cnc(Nc3ccc(N4CCOCC4)cc3)nc12` [Example C007, 8-(5-chloro-2-fluorophenyl)-N-(4-morpholinophenyl)quinazolin-2-amine]: at EGFR (ErbB1) L858R, the inhibition at 1 µM was below 50%.
Regarding `C=CC(=O)Nc1cccc(-c2cccc3cnc(Nc4ccc(N5CCN(C)CC5)cc4F)nc23)c1` [Example C044, N-(3-(2-((2-fluoro-4-(4-methylpiperazin-1-yl)phenyl)amino)quinazolin-8-yl)phenyl)acrylamide], the IC50 is below 100 nM on BTK, below 100 nM at JAK3 and above 500 nM in the test on A431 cells.
